Assay results taken from patent US20250332180A1, “CANNABINOIDS AND IL-15 ACTIVATE NK CELLS” (The Regents of the University of California, priority 2022, published 2025).

How the values were obtained:
[1] = system: anti-proliferative effects of radiation therapy; settings: previously reported; cited from earlier work
OSCCs [2] = experiment: Cell count of viable cells (Trypan Blue, light microscope); format: cell-based, human; settings: CDDP 50 μg/mL, 24 hours
Source text: The number of viable cells was counted under light microscope using Trypan Blue staining. Compiled data from three independent experiments performed as shown.
The number of viable cells was counted under light microscope using Trypan Blue staining (Sigma, MO, USA).

OSCCs [3] = experiment: Cell death assay (PI staining, flow cytometry); format: cell-based, human; settings: CDDP 50 μg/mL, 24 hours
Protocol: No differences between untreated tumor cells and those treated with the DMSO vehicle alone in cell count or the amount of cell death in OSCCs and OSCSCs. […] Proportion of the live cells that had lost forward and side scatter were determined indicating decreased viability of the cells. In addition, the numbers of viable cells were determined after PI staining followed by flow cytometric analysis (FIG. 2A). OSCC tumor cells were treated as in FIG. 2A and the cells were analyzed by flow cytometry to determine the proportion of the live cells that had lost forward and side scatter indicating decreased viability of the cells (FIG. 2B) and the numbers of viable OSCC tumor cells were determined after PI staining followed by flow cytometric analysis (FIG. 2C). […] PI staining was used to determine the cell death by flow cytometry. One of four representative experiment is shown in (FIG. 2D). The compiled data of paired OSCCs and OSCSCs at the same concentration of WIN 55,212-2 treatment from four experiments is shown in (FIG. 2E). Four experiments were compiled and the % cell death of tumor cells by various WIN 55-212,2 concentrations (10, 25, 50 and 100 μM) were compared to the untreated control for both OSCC (FIG. 2F) and OSCSC (FIG. 2G). […] Non-linear regression was used to fit the curve of the % cell death induced by WIN 55-212,2 in various concentrations (10, 25, 50 and 100 μM) for both OSCC and OSCSC. […] The differences were clear within each independent experiment.
PI staining was used to determine the cell death by flow cytometry. Compiled data from four independent experiments performed is shown.

PL-12 tumor cells [4] = experiment: Cell death assay (PI staining, flow cytometry); format: cell-based, human; settings: CDDP
OSCCs [5] = experiment: Microscopy of morphology and viability; format: cell-based, human; settings: CDDP 50 μg/mL, 24 h
Protocol: (§1) Chemical structure of WIN 55,212-2 (FIG. 7A). […] OSCCs and OSCSCs were treated with CDDP (50 μg/mL) and different concentrations of WIN 55,212-2 for 24 hours before the microscopic images were taken. Scale bar=50 μm (FIG. 7B).

OSCSCs = experiment: Microscopy of morphology and viability; format: cell-based, human; settings: CDDP 50 μg/mL, 24 h
Protocol: as §1

MP2 tumor cells = experiment: Microscopy of morphology and viability; format: cell-based, human; settings: CDDP 50 μg/mL, 24 hours
Protocol: (§2) MP2 and PL-12 tumor cells were treated with CDDP (50 μg/mL) and different concentrations of WIN 55,212-2 for 24 hours before the microscopic images were taken. Scale bar=50 μm.

PL-12 tumor cells [6] = experiment: Microscopy of morphology and viability; format: cell-based, human; settings: CDDP 50 μg/mL, 24 hours
Protocol: as §2

NK cells = experiment: NK cell cytotoxicity in humanized BLT mice (4-hr Chromium release assay); format: in vivo; settings: hu-BLT mice, every 2 days for 3 weeks; WIN 55,212-2 2 mg/kg IP; IL-15 5 μg/mice IP; preliminary experiments
Protocol: Humanized BLT mice (hu-BLT; human-bone marrow/liver/thymus) were fed with, AJ2 (5×10^9 CFU/mice, every 2 days, Oral administration), WIN 55,212-2 (2 mg/kg, every 2 days, IP) and/or IL-15 (5 μg/mice, every 2 days, IP). After 3 weeks of treatment, immune cells were collected from peripheral blood, bone marrow and spleen, and CD3+ T cells were isolated from splenocytes with EasySep™ Human CD3 positive selection kit II (StemCell Tech.). PBMCs (0.5×10^6 cells) obtained from the peripheral blood were treated with IL-2 (1000 U/ml) and/or anti-CD16 antibody (BioLegend) (3 μg/ml) for 3 days, after which the cells were counted and different numbers of E:T ratios were used for the assessment of cytotoxicity using 4-hr Chromium release assay (FIG. 1A and FIG. 1B). The percentage specific cytotoxicity was calculated using the following formula (% cytotoxicity=(Experimental cpm/spontaneous cpm)/(total cpm−spontaneous cpm)) and the lytic unit 30 (Lu30/10^6) was calculated by using the inverse of the number of effector cells needed to lyse 30% of tumor target cells×100. Killing per % NK cells was determined by dividing the total Lytic unit 30 by the percentage of NK cells in each sample (FIG. 1A and FIG. 1B). […]

IFN-γ secretion = IFN-γ secretion of immune cells in humanized BLT mice (ELISA, ELISpot); format: in vivo; settings: hu-BLT mice, every 2 days for 3 weeks; WIN 55,212-2 2 mg/kg IP; IL-15 5 μg/mice IP
Protocol: Humanized BLT mice (hu-BLT; human-bone marrow/liver/thymus) were fed with, AJ2 (5×10^9 CFU/mice, every 2 days, Oral administration), WIN 55,212-2 (2 mg/kg, every 2 days, IP) and/or IL-15 (5 μg/mice, every 2 days, IP). After 3 weeks of treatment, immune cells were collected from peripheral blood, bone marrow and spleen, and CD3+ T cells were isolated from splenocytes with EasySep™ Human CD3 positive selection kit II (StemCell Tech.). PBMCs (0.5×10^6 cells) obtained from the peripheral blood were treated with IL-2 (1000 U/ml) and/or anti-CD16 antibody (BioLegend) (3 μg/ml) for 3 days, after which the cells were counted and different numbers of E:T ratios were used for the assessment of cytotoxicity using 4-hr Chromium release assay (FIG. 1A and FIG. 1B). The percentage specific cytotoxicity was calculated using the following formula (% cytotoxicity=(Experimental cpm/spontaneous cpm)/(total cpm−spontaneous cpm)) and the lytic unit 30 (Lu30/10^6) was calculated by using the inverse of the number of effector cells needed to lyse 30% of tumor target cells×100. Killing per % NK cells was determined by dividing the total Lytic unit 30 by the percentage of NK cells in each sample (FIG. 1A and FIG. 1B). PBMCs (0.5×10^6 cells) obtained from the blood were treated with IL-2 (1000 U/ml) and/or anti-CD16 antibody (BioLegend) (3 μg/ml) for 24 hours, after which the supernatants were collected to measure IFN-g secretion using ELISA (BioLegend, San Diego) (FIG. 1C). ELISpot was used to determine the IFN-γ spots in PBMC (FIG. 1D), bone marrow (FIG. 1E), spleen (FIG. 1F) and CD3+ T cells (FIG. 1G).
Humanized BLT mice (hu-BLT; human-bone marrow/liver/thymus) were fed with, AJ2 (5×10^9 CFU/mice, every 2 days, Oral administration), WIN 55,212-2 (2 mg/kg, every 2 days, IP) and/or IL-15 (5 μg/mice, every 2 days, IP). After 3 weeks of treatment, immune cells were collected from peripheral blood, bone marrow and spleen, and CD3+ T cells were isolated from splenocytes with EasySep™ Human CD3 positive selection kit II (StemCell Tech.). PBMCs (0.5×10^6 cells) obtained from the peripheral blood were treated with IL-2 (1000 U/ml) and/or anti-CD16 antibody (BioLegend) (3 μg/ml) for 3 days, after which the cells were counted and different numbers of E:T ratios were used for the assessment of cytotoxicity using 4-hr Chromium release assay (FIG. 6A and FIG. 6B). The percentage specific cytotoxicity was calculated using the following formula (% cytotoxicity=(Experimental cpm/spontaneous cpm)/(total cpm−spontaneous cpm)) and the lytic unit 30 (Lu30/10^6) was calculated by using the inverse of the number of effector cells needed to lyse 30% of tumor target cells×100. Killing per % NK cells was determined by dividing the total Lytic unit 30 by the percentage of NK cells in each sample (FIG. 6A and FIG. 6B). PBMCs (0.5×10^6 cells) obtained from the blood were treated with IL-2 (1000 U/ml) and/or anti-CD16 antibody (BioLegend) (3 μg/ml) for 24 hours, after which the supernatants were collected to measure IFN-g secretion using ELISA (BioLegend, San Diego) (FIG. 6C). ELISpot was used to determine the IFN-γ spots in PBMC (FIG. 6D), bone marrow (FIG. 6E), spleen (FIG. 6F) and CD3+ T cells (FIG. 6G).

C=C(C)[C@@H]1CCC(C)=C[C@H]1c1c(O)cc(CCCCC)cc1O [CBD]
enhancement of anti-proliferative effects of radiation therapy [1]: failed to enhance

N.N.[Cl][Pt][Cl] [CDDP, cis-diamminedichloridoplatinum(II)]
inhibition of cell growth, OSCCs compared with OSCSCs (OSCCs [2]): inhibit cell growth of OSCCs more than those seen with OSCSCs
cell death, OSCCs compared with OSCSCs (OSCCs [3]): triggered more cell death in OSCCs when compared to OSCSCs
cell death, PL-12 compared with MP2 (PL-12 tumor cells [4]; compiled data): similar
cell death, PL-12 compared with MP2 (PL-12 tumor cells [4]; representative experiment): higher in PL-12
morphology and attachment (OSCCs [5]): loss of morphology, and the majority were detached from the plates
morphology and attachment (OSCSCs): the majority of these cells were still attached to the cell culture plate
morphology (MP2 tumor cells): affected both PL-12 and MP2 tumors morphologically
morphology (PL-12 tumor cells [6]): affected both PL-12 and MP2 tumors morphologically

CCCCCc1cc(O)c2c(c1)OC(C)(C)[C@@H]1CCC(C)=C[C@@H]21 [THC, tetrahydrocannabinol]
enhancement of anti-proliferative effects of radiation therapy [1]: failed to enhance

CCCCCCC(C)(C)c1cc(O)c2c(c1)OC(C)(C)C1CCC(=O)CC21 (stereo not shown) [nabilone]
enhancement of anti-proliferative effects of radiation therapy [1]: failed to enhance

IL-15: IL-15, given by intraperitoneal injection 5 μg/mice
cytotoxic function of NK cells in PBMC (NK cells): increased the NK cytotoxicity
IFN-γ secretion (ELISA, PBMCs) (IFN-γ secretion): increased
